According to patent publication US20260262643A1, “HERBICIDAL BENZOXAZINES” (FMC CORPORATION, priority 2022, published 2026):

How the values were obtained:
barnyardgrass [1] = experiment: Test A preemergence; format: in vivo, Echinochloa crusgalli; conditions: visual injury after 10 days, 0 to 100 scale, 0 is no effect, 100 is complete control
Procedure, shortened: (§1)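 Greenhouse pot test, 10 days. Compound (non-phytotoxic solvent, surfactant) sprayed on soil at seeding or on seedlings at one- to two-leaf stage. Visual injury rated 0–100 against untreated plants.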

foxtail, giant [2] = experiment: Test A preemergence; format: in vivo, Setaria faberi; conditions: visual injury after 10 days, 0 to 100 scale, 0 is no effect, 100 is complete control
Procedure, shortened: as §1

oat, wild [3] = experiment: Test A preemergence; format: in vivo, Avena fatua; conditions: visual injury after 10 days, 0 to 100 scale, 0 is no effect, 100 is complete control
Procedure, shortened: as §1

pigweed, palmer [4] = experiment: Test A preemergence; format: in vivo, Amaranthus palmeri; conditions: visual injury after 10 days, 0 to 100 scale, 0 is no effect, 100 is complete control
Procedure, shortened: as §1

sedge, umbrella = experiment: Test B flooded paddy test; format: in vivo, Cyperus difformis; conditions: 250 g ai/ha, Flood, 13 days, 0 to 100 scale (0 no effect, 100 complete control)
Procedure, shortened: (§2)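 Percent weed or crop control, judged by eye on a 0–100 scale 13 days post-treatment, reflects compound added to a 3 cm flood maintained over 2-leaf plants in the greenhouse. Missing entries are marked with a dash.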

foxtail, giant [5] = experiment: Test A postemergence; format: in vivo, Setaria faberi; conditions: postemergence, 10 days
Procedure, shortened: as §1

ragweed [6] = experiment: Test A preemergence; format: in vivo, Ambrosia artemisiifolia; conditions: visual injury after 10 days, 0 to 100 scale, 0 is no effect, 100 is complete control
Procedure, shortened: as §1

soybean [7] = experiment: Test A preemergence; format: in vivo, Glycine max; conditions: visual injury after 10 days, 0 to 100 scale, 0 is no effect, 100 is complete control
Procedure, shortened: as §1

blackgrass [8] = experiment: Test A preemergence; format: in vivo, Alopecurus myosuroides; conditions: visual injury after 10 days, 0 to 100 scale, 0 is no effect, 100 is complete control
Procedure, shortened: as §1

barnyardgrass [9] = experiment: Test A postemergence; format: in vivo, Echinochloa crusgalli; conditions: postemergence, 10 days
Procedure, shortened: as §1

ragweed [10] = experiment: Test A postemergence; format: in vivo, Ambrosia artemisiifolia; conditions: postemergence, 10 days
Procedure, shortened: as §1

wheat [11] = experiment: Test A postemergence; format: in vivo, Triticum aestivum; conditions: postemergence, 10 days
Procedure, shortened: as §1

oat, wild [12] = experiment: Test A postemergence; format: in vivo, Avena fatua; conditions: postemergence, 10 days
Procedure, shortened: as §1

horseweed = experiment: Test A postemergence; format: in vivo, Erigeron canadensis; conditions: postemergence, 10 days
Procedure, shortened: as §1

corn [13] = experiment: Test A postemergence; format: in vivo, Zea mays; conditions: postemergence, 10 days
Procedure, shortened: as §1

rice = experiment: Test B flooded paddy test; format: in vivo, Oryza sativa; conditions: 250 g ai/ha, Flood, 13 days, 0 to 100 scale (0 no effect, 100 complete control)
Procedure, shortened: as §2

barnyardgrass [14] = experiment: Test B flooded paddy test; format: in vivo, Echinochloa crus-galli; conditions: 250 g ai/ha, Flood, 13 days, 0 to 100 scale (0 no effect, 100 complete control)
Procedure, shortened: as §2

kochia [15] = experiment: Test A preemergence; format: in vivo, Bassia scoparia; conditions: visual injury after 10 days, 0 to 100 scale, 0 is no effect, 100 is complete control
Procedure, shortened: as §1

corn [16] = experiment: Test A preemergence; format: in vivo, Zea mays; conditions: visual injury after 10 days, 0 to 100 scale, 0 is no effect, 100 is complete control
Procedure, shortened: as §1

blackgrass [17] = experiment: Test A postemergence; format: in vivo, Alopecurus myosuroides; conditions: postemergence, 10 days
Procedure, shortened: as §1

ducksalad = experiment: Test B flooded paddy test; format: in vivo, Heteranthera limosa; conditions: 250 g ai/ha, Flood, 13 days, 0 to 100 scale (0 no effect, 100 complete control)
Procedure, shortened: as §2

soybean [18] = experiment: Test A postemergence; format: in vivo, Glycine max; conditions: postemergence, 10 days
Procedure, shortened: as §1

kochia [19] = experiment: Test A postemergence; format: in vivo, Bassia scoparia; conditions: postemergence, 10 days
Procedure, shortened: as §1

ryegrass, Italian [20] = experiment: Test A postemergence; format: in vivo, Lolium multiflorum; conditions: postemergence, 10 days
Procedure, shortened: as §1

wheat [21] = experiment: Test A preemergence; format: in vivo, Triticum aestivum; conditions: visual injury after 10 days, 0 to 100 scale, 0 is no effect, 100 is complete control
Procedure, shortened: as §1

galium = experiment: Test A postemergence; format: in vivo, Galium aparine; conditions: postemergence, 10 days
Procedure, shortened: as §1

ryegrass, Italian [22] = experiment: Test A preemergence; format: in vivo, Lolium multiflorum; conditions: visual injury after 10 days, 0 to 100 scale, 0 is no effect, 100 is complete control
Procedure, shortened: as §1

pigweed, palmer [23] = experiment: Test A postemergence; format: in vivo, Amaranthus palmeri; conditions: postemergence, 10 days
Procedure, shortened: as §1

[24] = 125 g ai/ha, 0 to 100 scale, 0 no effect, 100 complete control
[25] = 500 g ai/ha, visual injury, 0 to 100 scale (0 no effect, 100 complete control)

C[C@H]1CN(C(=O)c2cc(Br)cc(-n3cncn3)c2)c2cccc(Cl)c2O1 [Compound 114]
Plant response rating, Barnyardgrass (barnyardgrass [1]; 125 g ai/ha): 30
Plant response rating, Barnyardgrass (barnyardgrass [1]; 500 g ai/ha): 90
Plant response rating, Foxtail, Giant (foxtail, giant [2]; 125 g ai/ha): 80
Plant response rating, Foxtail, Giant (foxtail, giant [2]; 500 g ai/ha): 100
Plant response rating, Oat, Wild (oat, wild [3]; 125 g ai/ha): 0
Plant response rating, Oat, Wild (oat, wild [3]; 500 g ai/ha): 20
Plant response rating, Pigweed, Palmer (pigweed, palmer [4]; 125 g ai/ha): 50
Plant response rating, Pigweed, Palmer (pigweed, palmer [4]; 500 g ai/ha): 90
Plant response rating, Sedge, Umbrella (sedge, umbrella): 0
Foxtail, Giant plant response rating (foxtail, giant [5]; [24]): 70
Plant response rating, Foxtail, Giant (foxtail, giant [5]; [25]): 90
Plant response rating, Ragweed (ragweed [6]; 125 g ai/ha): 0
Plant response rating, Ragweed (ragweed [6]; 500 g ai/ha): 0
Plant response rating, Soybean (soybean [7]; 125 g ai/ha): 0
Plant response rating, Soybean (soybean [7]; 500 g ai/ha): 0
Plant response rating, Blackgrass (blackgrass [8]; 125 g ai/ha): 30
Plant response rating, Blackgrass (blackgrass [8]; 500 g ai/ha): 70
Barnyardgrass plant response rating (barnyardgrass [9]; [24]): 10
Plant response rating, Barnyardgrass (barnyardgrass [9]; [25]): 70
Ragweed plant response rating (ragweed [10]; [24]): 0
Plant response rating, Ragweed (ragweed [10]; [25]): 0
Wheat plant response rating (wheat [11]; [24]): 10
Plant response rating, Wheat (wheat [11]; [25]): 40
Oat, Wild plant response rating (oat, wild [12]; [24]): 0
Plant response rating, Oat, Wild (oat, wild [12]; [25]): 40
Horseweed plant response rating (horseweed; [24]): 0
Plant response rating, Horseweed (horseweed; [25]): 0
Corn plant response rating (corn [13]; [24]): 50
Plant response rating, Corn (corn [13]; [25]): 80
Plant response rating, Rice (rice): 0
Plant response rating, Barnyardgrass (barnyardgrass [14]): 0
Plant response rating, Kochia (kochia [15]; 125 g ai/ha): 0
Plant response rating, Kochia (kochia [15]; 500 g ai/ha): 20
Plant response rating, Corn (corn [16]; 125 g ai/ha): 0
Plant response rating, Corn (corn [16]; 500 g ai/ha): 0
Blackgrass plant response rating (blackgrass [17]; [24]): 50
Plant response rating, Blackgrass (blackgrass [17]; [25]): 90
Plant response rating, Ducksalad (ducksalad): 0
Soybean plant response rating (soybean [18]; [24]): 60
Plant response rating, Soybean (soybean [18]; [25]): 100
Kochia plant response rating (kochia [19]; [24]): 40
Plant response rating, Kochia (kochia [19]; [25]): 80
Ryegrass, Italian plant response rating (ryegrass, Italian [20]; [24]): 50
Plant response rating, Ryegrass, Italian (ryegrass, Italian [20]; [25]): 70
Plant response rating, Wheat (wheat [21]; 125 g ai/ha): 20
Plant response rating, Wheat (wheat [21]; 500 g ai/ha): 50
Galium plant response rating (galium; [24]): 60
Plant response rating, Galium (galium; [25]): 70
Plant response rating, Ryegrass, Italian (ryegrass, Italian [22]; 125 g ai/ha): 50
Plant response rating, Ryegrass, Italian (ryegrass, Italian [22]; 500 g ai/ha): 90
Pigweed, Palmer plant response rating (pigweed, palmer [23]; [24]): 40
Plant response rating, Pigweed, Palmer (pigweed, palmer [23]; [25]): 100
